Some results are limits rather than exact numbers.

The experiment deals with T1, Human FXIIa (Homo sapiens, UniProt P00748).
T1 construct: active coagulation factor XII (FXIIa); purchased Enzyme Research Labs
T1 sequence (P00748 373-615 limits assumed): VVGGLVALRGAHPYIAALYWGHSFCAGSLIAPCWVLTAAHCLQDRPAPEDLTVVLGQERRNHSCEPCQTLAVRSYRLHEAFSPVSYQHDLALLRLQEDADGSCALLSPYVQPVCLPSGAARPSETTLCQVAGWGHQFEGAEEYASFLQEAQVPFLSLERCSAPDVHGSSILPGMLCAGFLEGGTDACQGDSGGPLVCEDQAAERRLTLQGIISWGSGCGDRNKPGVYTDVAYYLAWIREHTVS
T1 sequence (P00748 20-372 partner limits assumed): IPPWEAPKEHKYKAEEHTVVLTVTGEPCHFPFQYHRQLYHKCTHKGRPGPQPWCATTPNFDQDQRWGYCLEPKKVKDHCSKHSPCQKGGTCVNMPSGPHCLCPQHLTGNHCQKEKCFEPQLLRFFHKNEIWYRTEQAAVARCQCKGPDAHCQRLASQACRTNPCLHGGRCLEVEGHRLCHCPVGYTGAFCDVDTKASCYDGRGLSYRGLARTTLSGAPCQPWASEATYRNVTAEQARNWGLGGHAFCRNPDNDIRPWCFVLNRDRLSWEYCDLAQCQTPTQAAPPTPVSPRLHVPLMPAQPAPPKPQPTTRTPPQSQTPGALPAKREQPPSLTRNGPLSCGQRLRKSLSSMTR
The experiment is described as follows: Factor XIIa (FXIIa) inhibitory activity, chromogenic substrate assay. In kind it is biochemical. Conditions: Human FXIIa 12.5 nM, Pefachrome XIIa 400 μM, 10 min preincubation. The method, then:
Factor XIIa (FXIIa) Inhibitory Activity:
In a 96-well clear bottom plate, 80 μl of assay buffer was added to each well. Assay buffer consists of 0.5× Hank's Balanced Salt Solution (Invitrogen), buffered with 25 mM HEPES pH 7.4 (Invitrogen) and 0.5× Tris-buffered saline with Tween-20 0.05% (Santa Cruz Biotechnology). Test compounds were first dissolved in DMSO (Sigma) and then 4 μl were added to test wells containing assay buffer. Serial dilutions using an automated multi-channel pipette were used to generate a concentration range of approximately 1-100 μM. […] 80 μl of this enzyme solution was added to the assay wells. The enzyme/compound mixtures were incubated for 10 minutes at room temperature. Chromogenic substrate (Pefachrome XIIa; Enzyme Research Labs) was added to assay wells at a final concentration of 400 μM. The assay plate was spun for 1 minute at 1500 g and then read at 37° C. in a SpectraMax M2 plate reader (λ=405 nm). Activity was quantified as the rate of change in absorbance, which corresponds to the rate of substrate cleavage.
With `Nc1c2c(nn1C(=O)[C@@H]1CCNc3ccc(Cl)cc31)CC[C@H](O)C2` (single isomer, unassigned) [Example 144, ((5S*)-3-amino-5-hydroxy-4,5,6,7-tetrahydroindazol-2-yl)((4R*)-6-chloro-1,2,3,4-tetrahydroquinolin-4-yl)methanone], the IC50 turned out to be 9 µM.
Then `Nc1nn(C(=O)[C@@H]2CCNc3ccc(Cl)cc32)c2c1C[C@@H](O)CC2` (single isomer, unassigned) [Example 145, ((5S*)-3-amino-5-hydroxy-4,5,6,7-tetrahydroindazol-1-yl)((4R*)-6-chloro-1,2,3,4-tetrahydroquinolin-4-yl)methanone], with over 80 µM.
Then `Nc1nn(C(=O)[C@H]2CCNc3ccc(Cl)cc32)c2c1C[C@@H](O)CC2` (single isomer, unassigned) [Example 146, ((5S*)-3-amino-5-hydroxy-4,5,6,7-tetrahydroindazol-1-yl)((4S*)-6-chloro-1,2,3,4-tetrahydroquinolin-4-yl)methanone], with over 80 µM; and `Nc1c2c(nn1C(=O)[C@@H]1CCNc3ccc(Cl)cc31)CC[C@@H](O)C2` (single isomer, unassigned) [Example 147, ((5R*)-3-amino-5-hydroxy-4,5,6,7-tetrahydroindazol-2-yl)((4R*)-6-chloro-1,2,3,4-tetrahydroquinolin-4-yl)methanone], with 33 µM.
With `Nc1nn(C(=O)[C@@H]2CCNc3ccc(Cl)cc32)c2c1C[C@H](O)CC2` (single isomer, unassigned) [Example 149, ((5R*)-3-amino-5-hydroxy-4,5,6,7-tetrahydroindazol-1-yl)((4R*)-6-chloro-1,2,3,4-tetrahydroquinolin-4-yl)methanone], the IC50 is over 40 µM.
Then `Nc1nn(C(=O)[C@H]2CCNc3ccc(Cl)cc32)c2c1C[C@H](O)CC2` (single isomer, unassigned) [Example 150, ((5R*)-3-amino-5-hydroxy-4,5,6,7-tetrahydroindazol-1-yl)((4S*)-6-chloro-1,2,3,4-tetrahydroquinolin-4-yl)methanone], with 23 µM; and `Nc1c2c(nn1C(=O)C1CCNc3ccc(F)cc31)CCC(F)(F)C2` (single isomer, unassigned) [Example 174, (R*)-(3-amino-5,5-difluoro-4,5,6,7-tetrahydroindazol-2-yl)(6-fluoro-1,2,3,4-tetrahydroquinolin-4-yl)methanone], with over 80 µM; and `CO[C@H]1CCc2nn(C(=O)[C@@H]3CCNc4ccc(F)cc43)c(N)c2C1` (single isomer, unassigned) [Example 176, ((5S*)-3-amino-5-methoxy-4,5,6,7-tetrahydroindazol-2-yl)((4R*)-6-fluoro-1,2,3,4-tetrahydroquinolin-4-yl)methanone], with over 100 µM.
In turn, `CO[C@@H]1CCc2nn(C(=O)[C@H]3CCNc4ccc(F)cc43)c(N)c2C1` (single isomer, unassigned) [Example 179, ((5R*)-3-amino-5-methoxy-4,5,6,7-tetrahydroindazol-2-yl)((4S*)-6-fluoro-1,2,3,4-tetrahydroquinolin-4-yl)methanone] showed an IC50 of 28 µM.
Then `Nc1c2c(nn1C(=O)[C@@H]1CCNc3ccc(F)cc31)C[C@@H](O)CC2` (single isomer, unassigned) [Example 182, ((6S*)-3-amino-6-hydroxy-4,5,6,7-tetrahydroindazol-2-yl)((4R*)-6-fluoro-1,2,3,4-tetrahydroquinolin-4-yl)methanone], with over 100 µM; and `Nc1c2c(nn1C(=O)[C@@H]1CCNc3ccc(F)cc31)C[C@H](O)CC2` (single isomer, unassigned) [Example 184, ((6R*)-3-amino-6-hydroxy-4,5,6,7-tetrahydroindazol-2-yl)((4R*)-6-fluoro-1,2,3,4-tetrahydroquinolin-4-yl)methanone], with over 100 µM.
For `Nc1c2c(nn1C(=O)C1CCNc3ccc(F)cc31)CCC(NC(=O)OCc1ccccc1)C2` (single isomer, unassigned) [Example 186, benzyl (5R*)-3-amino-2-(6-fluoro-1,2,3,4-tetrahydroquinoline-4-carbonyl)-4,5,6,7-tetrahydro-2H-indazol-5-ylcarbamate], it took 2.5 µM to reach half-maximal inhibition (IC50).
Under `Nc1nn(C(=O)C2CCNc3ccc(F)cc32)c2c1CC(NC(=O)OCc1ccccc1)CC2` (single isomer, unassigned) [Example 191, benzyl N-[(5S*)-3-amino-1-[(6-fluoro-1,2,3,4-tetrahydroquinolin-4-yl)carbonyl]-4,5,6,7-tetrahydro-1H-indazol-5-yl]carbamate] stands over 55 µM; under `Cc1cccc2c1NCCC2C(=O)n1nc2c(c1N)C=CCC2` (single isomer, unassigned) [Example 194, (R*)-(3-amino-6,7-dihydroindazol-2-yl)(8-methyl-1,2,3,4-tetrahydroquinolin-4-yl)methanone], 7 µM; under `Cc1cccc2c1NCCC2C(=O)n1nc2c(c1N)C=CCC2` (single isomer, unassigned) [Example 195, (S*)-(3-amino-6,7-dihydroindazol-2-yl)(8-methyl-1,2,3,4-tetrahydroquinolin-4-yl)methanone], 0.04 µM.
Under `Cc1cccc2c1NCC[C@@H]2C(=O)n1nc2c(c1N)CC[C@@H](O)C2` (single isomer, unassigned) [Example 199, ((6R*)-3-amino-6-hydroxy-4,5,6,7-tetrahydroindazol-2-yl)((4S*)-8-methyl-1,2,3,4-tetrahydroquinolin-4-yl)methanone] stands 0.04 µM.
`Cc1cccc2c1NCC[C@H]2C(=O)n1nc2c(c1N)CC[C@@H](O)C2` (single isomer, unassigned) [Example 200, ((6R*)-3-amino-6-hydroxy-4,5,6,7-tetrahydroindazol-2-yl)((4R*)-8-methyl-1,2,3,4-tetrahydroquinolin-4-yl)methanone] yielded an IC50 of 3.3 µM.
Then `Cc1cccc2c1NCC[C@@H]2C(=O)n1nc(N)c2c1C[C@H](O)CC2` (single isomer, unassigned) [Example 201, ((6R*)-3-amino-6-hydroxy-4,5,6,7-tetrahydroindazol-1-yl)((4S*)-8-methyl-1,2,3,4-tetrahydroquinolin-4-yl)methanone], with over 150 µM; and `Cc1cccc2c1NCC[C@H]2C(=O)n1nc(N)c2c1C[C@H](O)CC2` (single isomer, unassigned) [Example 202, ((6R*)-3-amino-6-hydroxy-4,5,6,7-tetrahydroindazol-1-yl)((4R*)-8-methyl-1,2,3,4-tetrahydroquinolin-4-yl)methanone], with over 175 µM; and `Nc1c2c(nn1C(=O)[C@H]1CCNc3c(Cl)cccc31)CC[C@@H](O)C2` (single isomer, unassigned) [Example 204, ((5R*)-3-amino-5-hydroxy-4,5,6,7-tetrahydroindazol-2-yl)((4S*)-8-chloro-1,2,3,4-tetrahydroquinolin-4-yl)methanone], with 0.04 µM.
Then `Nc1nn(C(=O)C2CCNc3c(Cl)cccc32)c2c1CC(O)CC2` (single isomer, unassigned) [Example 205, ((5R*)-3-amino-5-hydroxy-4,5,6,7-tetrahydroindazol-1-yl)(8-chloro-1,2,3,4-tetrahydroquinolin-4-yl)methanone], with over 100 µM; and `Nc1c2c(nn1C(=O)[C@@H]1CCNc3c(Cl)cccc31)C[C@@H](O)CC2` (single isomer, unassigned) [Example 206, ((6S*)-3-amino-6-hydroxy-4,5,6,7-tetrahydroindazol-2-yl)((4R*)-8-chloro-1,2,3,4-tetrahydroquinolin-4-yl)methanone], with 2.8 µM.
Under `Nc1c2c(nn1C(=O)[C@H]1CCNc3c(Cl)cccc31)C[C@@H](O)CC2` (single isomer, unassigned) [Example 207, ((6S*)-3-amino-6-hydroxy-4,5,6,7-tetrahydroindazol-2-yl)((4S*)-8-chloro-1,2,3,4-tetrahydroquinolin-4-yl)methanone] stands 0.16 µM; under `Nc1nn(C(=O)C2CCNc3c(Cl)cccc32)c2c1CCC(O)C2` (single isomer, unassigned) [Example 208, ((6S*)-3-amino-6-hydroxy-4,5,6,7-tetrahydroindazol-1-yl)(8-chloro-1,2,3,4-tetrahydroquinolin-4-yl)methanone], over 100 µM; under `Nc1nn(C(=O)[C@H]2CCNc3c(Cl)cccc32)c2c1CC[C@@H](O)C2` (single isomer, unassigned) [Example 211, ((6R*)-3-amino-6-hydroxy-4,5,6,7-tetrahydroindazol-1-yl)((4S*)-8-chloro-1,2,3,4-tetrahydroquinolin-4-yl)methanone], over 100 µM.

The values are drawn from patent US10538512B2, “Aminoacylindazole immunomodulators for treatment of autoimmune diseases” (The Rockefeller University, priority 2016, dated 2020).
